According to PubChem BioAssay (NCI):
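48-hour exposure; five concentrations; linearly interpolated endpoints. Abbreviation: GI50, concentration required for 50% inhibition of growth. Definition used: TGI = concentration required for complete inhibition of growth.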

Key:
Assay in all cases: NCI anticancer screen, dose series, 48 h
[1] = test system: UACC-62 melanoma
[2] = test system: SNB-75 CNS
[3] = test system: MALME-3M melanoma
[4] = test system: SNB-19 CNS
[5] = test system: OVCAR-4 ovarian
[6] = test system: OVCAR-3 ovarian
[7] = test system: PC-3 prostate
[8] = test system: M14 melanoma
[9] = test system: NCI-H23 lung
[10] = test system: OVCAR-5 ovarian
[11] = test system: NCI/ADR-RES ovarian
[12] = test system: COLO 205 colon
[13] = test system: HOP-62 NSCLC
[14] = test system: SF-295 CNS
[15] = test system: K-562 leukemia
[16] = test system: SN12C renal
[17] = test system: HT29 colon
[18] = test system: MDA-MB-435
[19] = test system: MCF7 breast
[20] = test system: OVCAR-8 ovarian
[21] = test system: SF-539 CNS
[22] = test system: HS 578T breast
[23] = test system: ACHN renal
[24] = test system: RPMI-8226 leukemia
[25] = test system: EKVX NSCLC
[26] = test system: CCRF-CEM leukemia
[27] = test system: TK-10 renal
[28] = test system: HCT-15 colon
[29] = test system: DU-145 prostate
[30] = test system: NCI-H522 lung
[31] = test system: LOX IMVI melanoma
[32] = test system: A549 NSCLC
[33] = test system: 786-0 renal
[34] = test system: UACC-257 melanoma
[35] = test system: T-47D breast
[36] = test system: SR leukemia
[37] = test system: A498 renal
[38] = test system: SK-MEL-28 melanoma
[39] = test system: SK-MEL-5 melanoma
[40] = test system: HL-60(TB) leukemia
[41] = test system: NCI-H460 lung
[42] = test system: NCI-H226 lung
[43] = test system: SK-MEL-2 melanoma
[44] = test system: HCT-116 colon
[45] = test system: UO-31 renal
[46] = test system: KM12 colon
[47] = test system: HOP-92 NSCLC
[48] = test system: SW-620 colon
[49] = test system: BT-549 breast
[50] = test system: SF-268 CNS
[51] = test system: CAKI-1 renal
[52] = test system: IGROV1 ovarian
[53] = test system: SK-OV-3 ovarian
[54] = test system: MDA-MB-231 breast
[55] = test system: MOLT-4 leukemia
[56] = test system: HCC-2998 colon
[57] = test system: U251 CNS
[58] = test system: RXF 393 renal

COc1ccc(-c2n[nH]nc2-c2cc(OC)c3c(c2OC)OCO3)cc1
GI50 [1]: 0.553 µM
TGI [1]: 14 µM
GI50 [2]: 0.573 µM
TGI [2]: 3.96 µM
GI50 [3]: 1.34 µM
TGI [3]: > 100 µM
GI50 [4]: 3.82 µM
TGI [4]: > 100 µM
GI50 [5]: 4.81 µM
TGI [5]: > 76.3 µM
GI50 [6]: 0.378 µM
TGI [6]: 2.71 µM
GI50 [7]: 1.87 µM
TGI [7]: > 100 µM
GI50 [8]: 0.433 µM
TGI [8]: 19.5 µM
GI50 [9]: 1.25 µM
TGI [9]: 26.5 µM
GI50 [10]: 4.68 µM
TGI [10]: > 100 µM
GI50 [11]: 0.368 µM
GI50 [12]: 1.19 µM
TGI [12]: 5.57 µM
GI50 [13]: 1.45 µM
TGI [13]: > 66.1 µM
GI50 [14]: 0.658 µM
TGI [14]: 5.67 µM
GI50 [15]: 0.277 µM
TGI [15]: > 82.4 µM
GI50 [16]: 4.86 µM
TGI [16]: 83.7 µM
GI50 [17]: 0.48 µM
TGI [17]: 13.7 µM
GI50 [18]: 0.227 µM
TGI [18]: 0.761 µM
GI50 [19]: 0.48 µM
TGI [19]: 35.2 µM
GI50 [20]: 2.02 µM
TGI [20]: > 69 µM
GI50 [21]: 1.32 µM
TGI [21]: 5.4 µM
GI50 [22]: 0.958 µM
TGI [22]: 15 µM
GI50 [23]: 9.16 µM
TGI [23]: > 100 µM
GI50 [24]: 0.751 µM
TGI [24]: 37.7 µM
GI50 [25]: 2.8 µM
TGI [25]: 39.7 µM
GI50 [26]: 0.565 µM
TGI [26]: > 100 µM
GI50 [27]: 4.85 µM
TGI [27]: 79.8 µM
GI50 [28]: 0.546 µM
TGI [28]: > 100 µM
GI50 [29]: 1.61 µM
TGI [29]: 13.6 µM
GI50 [30]: 0.486 µM
TGI [30]: 3.67 µM
GI50 [31]: 0.746 µM
TGI [31]: 19 µM
GI50 [32]: 0.7 µM
TGI [32]: > 58.8 µM
GI50 [33]: 3.07 µM
TGI [33]: 71.9 µM
GI50 [34]: 2.8 µM
TGI [34]: > 100 µM
GI50 [35]: 1.73 µM
TGI [35]: > 100 µM
GI50 [36]: 0.299 µM
TGI [36]: 22.6 µM
GI50 [37]: 0.312 µM
TGI [37]: 6.38 µM
GI50 [38]: 1.95 µM
TGI [38]: > 100 µM
GI50 [39]: 0.684 µM
TGI [39]: 17.7 µM
GI50 [40]: 0.293 µM
TGI [40]: 0.975 µM
GI50 [41]: 0.409 µM
TGI [41]: 15.9 µM
GI50 [42]: 9.69 µM
TGI [42]: > 92.6 µM
GI50 [43]: 0.596 µM
TGI [43]: 11.4 µM
GI50 [44]: 0.424 µM
TGI [44]: 19.2 µM
GI50 [45]: 3.83 µM
TGI [45]: 46.6 µM
GI50 [46]: 0.426 µM
TGI [46]: 44.7 µM
GI50 [47]: 0.685 µM
TGI [47]: 22.6 µM
GI50 [48]: 0.348 µM
TGI [48]: > 95.6 µM
GI50 [49]: 0.544 µM
TGI [49]: 25.9 µM
GI50 [50]: 2.98 µM
TGI [50]: 54.3 µM
GI50 [51]: 0.839 µM
TGI [51]: > 60.1 µM
GI50 [52]: 0.885 µM
TGI [52]: > 68 µM
GI50 [53]: 1.27 µM
TGI [53]: 9.3 µM
GI50 [54]: 1.71 µM
TGI [54]: 17.4 µM
GI50 [55]: 0.463 µM
TGI [55]: 33.1 µM
GI50 [56]: 1.7 µM
TGI [56]: 19.3 µM
GI50 [57]: 0.817 µM
TGI [57]: 11 µM
GI50 [58]: 1.1 µM
TGI [58]: 5.37 µM

COC(=O)c1c2n(c3ccccc13)C[C@H]1OC(C)(C)O[C@@H]21
TGI [1]: > 100 µM
TGI [2]: > 100 µM
TGI [3]: > 87.6 µM
TGI [4]: > 100 µM
TGI [5]: > 100 µM
TGI [6]: > 100 µM
TGI [7]: > 100 µM
TGI [8]: > 100 µM
TGI [9]: > 100 µM
TGI [10]: > 100 µM
TGI [11]: > 100 µM
TGI [12]: > 100 µM
TGI [13]: > 100 µM
TGI [14]: > 100 µM
TGI [15]: > 100 µM
TGI [16]: > 100 µM
TGI [17]: > 100 µM
TGI [18]: > 100 µM
TGI [19]: > 100 µM
TGI [20]: > 100 µM
TGI [21]: > 100 µM
TGI [22]: > 100 µM
TGI [23]: > 100 µM
TGI [24]: > 100 µM
TGI [25]: > 100 µM
TGI [26]: > 100 µM
TGI [27]: > 100 µM
TGI [28]: > 100 µM
TGI [29]: > 100 µM
TGI [30]: > 100 µM
TGI [31]: > 100 µM
TGI [32]: > 100 µM
TGI [33]: > 100 µM
TGI [34]: > 100 µM
TGI [35]: > 100 µM
TGI [36]: > 100 µM
TGI [37]: > 100 µM
TGI [38]: > 100 µM
TGI [39]: > 100 µM
TGI [40]: > 100 µM
TGI [41]: > 100 µM
TGI [42]: > 100 µM
TGI [43]: > 100 µM
TGI [44]: > 100 µM
TGI [45]: > 100 µM
TGI [46]: > 100 µM
TGI [47]: > 100 µM
TGI [48]: > 100 µM
TGI [49]: > 100 µM
TGI [50]: > 100 µM
TGI [51]: > 100 µM
TGI [52]: > 100 µM
TGI [53]: > 100 µM
TGI [54]: > 100 µM
TGI [55]: > 100 µM
TGI [56]: > 100 µM
TGI [57]: > 100 µM
TGI [58]: > 100 µM
